Laboratory results published in ChEMBL document CHEMBL3400114, “The design, synthesis and biological evaluation of conformationally restricted 4-substituted-2,6-dimethylfuro[2,3-d]pyrimidines as multi-targeted receptor tyrosine kinase and microtubule inhibitors as potential antitumor agents” (Bioorg Med Chem, 2015).

Legend:
[1] = Antiangiogenic activity in VEGF-165 and bFGF-stimulated chicken embryo chorioallantoic membrane assessed as inhibition of blood vessel formation after 40 hrs by microscopy; assay type: functional, tissue-based, Gallus gallus
A-431 = experiment: Antiproliferative activity against human A431 cells after 48 hrs by sulforhodamine B assay; assay type: functional, cell-based; conditions: A-431, 48 h
[2] = Induction of microtubule depolymerization in rat A10 cells after 18 hrs by indirect immunofluorescence assay; assay type: cell-based
[3] = target: Platelet-derived growth factor receptor beta (Homo sapiens, UniProt P09619); experiment: Inhibition of PDGFR-beta in human U251 cells compound pretreated for 60 min before PDGF-BB stimulation for 10 mins by phosphotyrosine ELISA cytoblot method; assay type: cell-based, U-251
[4] = target: Vascular endothelial growth factor receptor 2 (Homo sapiens, UniProt P35968); assay type: cell-based, U-251
SW-620 = experiment: Growth inhibition of human SW620 cells after 48 hrs by sulforhodamine B assay; assay type: functional; conditions: SW-620, 48 h
HeLa [5] = experiment: Resistance ratio of IC50 for human HeLa cells overexpressing wild type beta3 tubulin to IC50 for human HeLa cells; assay type: functional
[6] = Growth inhibition of human SF295 cells after 48 hrs by sulforhodamine B assay; assay type: functional; conditions: SF-295, 48 h
SNB-19 = experiment: Growth inhibition of human SNB19 cells after 48 hrs by sulforhodamine B assay; assay type: functional; conditions: SNB-19, 48 h
HT-29 = experiment: Growth inhibition of human HT-29 cells after 48 hrs by sulforhodamine B assay; assay type: functional; conditions: HT-29, 48 h
NCI-H522 = experiment: Growth inhibition of human NCI-H522 cells after 48 hrs by sulforhodamine B assay; assay type: functional; conditions: NCI-H522, 48 h
[7] = Growth inhibition of human OVCAR4 cells after 48 hrs by sulforhodamine B assay; assay type: functional; conditions: OVCAR-4, 48 h
SR = experiment: Growth inhibition of human SR cells after 48 hrs by sulforhodamine B assay; assay type: functional
K562 = experiment: Growth inhibition of human K562 cells after 48 hrs by sulforhodamine B assay; assay type: functional; conditions: K562, 48 h
SN12C = experiment: Growth inhibition of human SN12C cells after 48 hrs by sulforhodamine B assay; assay type: functional
[8] = Growth inhibition of human PC3 cells after 48 hrs by sulforhodamine B assay; assay type: functional; conditions: PC-3, 48 h
HeLa [9] = experiment: Antiproliferative activity against human HeLa cells after 48 hrs by sulforhodamine B assay; assay type: functional, cell-based
[10] = Growth inhibition of human HCT15 cells after 48 hrs by sulforhodamine B assay; assay type: functional; conditions: HCT-15, 48 h
[11] = Growth inhibition of human RXF393 cells after 48 hrs by sulforhodamine B assay; assay type: functional; conditions: RXF 393, 48 h
[12] = Growth inhibition of human EKVX cells after 48 hrs by sulforhodamine B assay; assay type: functional
NCI-H226 = experiment: Growth inhibition of human NCI-H226 cells after 48 hrs by sulforhodamine B assay; assay type: functional; conditions: NCI-H226, 48 h
[13] = Ratio of EC50 for microtubule depolymerization in rat A10 cells to IC50 for human MDA-MB-435 cells
[14] = Growth inhibition of human SF539 cells after 48 hrs by sulforhodamine B assay; assay type: functional; conditions: SF-539, 48 h
[15] = Growth inhibition of human OVCAR8 cells after 48 hrs by sulforhodamine B assay; assay type: functional; conditions: OVCAR-8, 48 h
[16] = Growth inhibition of human Hs 578T cells after 48 hrs by sulforhodamine B assay; assay type: functional
SK-MEL-2 = experiment: Growth inhibition of human SK-MEL-2 cells after 48 hrs by sulforhodamine B assay; assay type: functional; conditions: SK-MEL-2, 48 h
DU-145 = experiment: Growth inhibition of human DU145 cells after 48 hrs by sulforhodamine B assay; assay type: functional; conditions: DU-145, 48 h
MDA-MB-435 [17] = experiment: Growth inhibition of human MDA-MB-435 cells after 48 hrs by sulforhodamine B assay; assay type: functional; conditions: MDA-MB-435, 48 h
HOP-62 = experiment: Growth inhibition of human HOP62 cells after 48 hrs by sulforhodamine B assay; assay type: functional; conditions: HOP-62, 48 h
SK-OV-3 [18] = experiment: Resistance ratio of IC50 for human SKOV3-MDR1-M6/6 cells to IC50 for human SKOV3 cells; assay type: functional
[19] = Antiproliferative activity against human SKOV3 cells overexpressing wild type beta3 tubulin after 48 hrs by sulforhodamine B assay; assay type: functional, cell-based; conditions: SK-OV-3, 48 h
[20] = Growth inhibition of human LOXIMVI cells after 48 hrs by sulforhodamine B assay; assay type: functional; conditions: LOX IMVI
NCI-H23 = experiment: Growth inhibition of human NCI-H23 cells after 48 hrs by sulforhodamine B assay; assay type: functional; conditions: NCI-H23, 48 h
[21] = Growth inhibition of human OVCAR3 cells after 48 hrs by sulforhodamine B assay; assay type: functional; conditions: OVCAR-3, 48 h
SNB-75 = experiment: Growth inhibition of human SNB75 cells after 48 hrs by sulforhodamine B assay; assay type: functional; conditions: SNB-75, 48 h
CAKI-1 = experiment: Growth inhibition of human Caki1 cells after 48 hrs by sulforhodamine B assay; assay type: functional; conditions: CAKI-1, 48 h
[22] = Growth inhibition of human HOP92 cells after 48 hrs by sulforhodamine B assay; assay type: functional; conditions: HOP-92, 48 h
TK-10 = experiment: Growth inhibition of human TK10 cells after 48 hrs by sulforhodamine B assay; assay type: functional; conditions: TK-10, 48 h
[23] = Growth inhibition of human UACC62 cells after 48 hrs by sulforhodamine B assay; assay type: functional; conditions: UACC-62, 48 h
[24] = Growth inhibition of human BT549 cells after 48 hrs by sulforhodamine B assay; assay type: functional; conditions: BT-549, 48 h
CCRF-CEM = experiment: Growth inhibition of human CCRF-CEM cells after 48 hrs by sulforhodamine B assay; assay type: functional
MDA-MB-468 = experiment: Growth inhibition of human MDA-MB-468 cells after 48 hrs by sulforhodamine B assay; assay type: functional; conditions: MDA-MB-468, 48 h
U-251 = experiment: Growth inhibition of human U251 cells after 48 hrs by sulforhodamine B assay; assay type: functional; conditions: U-251, 48 h
MDA-MB-231 = experiment: Growth inhibition of human MDA-MB-231 cells after 48 hrs by sulforhodamine B assay; assay type: functional; conditions: MDA-MB-231, 48 h
NCI-H460 = experiment: Growth inhibition of human NCI-H460 cells after 48 hrs by sulforhodamine B assay; assay type: functional; conditions: NCI-H460, 48 h
[25] = Growth inhibition of human HCT116 cells after 48 hrs by sulforhodamine B assay; assay type: functional; conditions: HCT-116, 48 h
KM12 = experiment: Growth inhibition of human KM12 cells after 48 hrs by sulforhodamine B assay; assay type: functional; conditions: KM12, 48 h
M14 = experiment: Growth inhibition of human M14 cells after 48 hrs by sulforhodamine B assay; assay type: functional; conditions: M14, 48 h
[26] = Growth inhibition of human MOLT4 cells after 48 hrs by sulforhodamine B assay; assay type: functional; conditions: MOLT-4, 48 h
SK-MEL-5 = experiment: Growth inhibition of human SK-MEL-5 cells after 48 hrs by sulforhodamine B assay; assay type: functional; conditions: SK-MEL-5, 48 h
MCF7 = experiment: Growth inhibition of human MCF7 cells after 48 hrs by sulforhodamine B assay; assay type: functional; conditions: MCF7, 48 h
[27] = Antiproliferative activity against human SKOV3-MDR1-M6/6 cells overexpressing wild type beta3 tubulin after 48 hrs by sulforhodamine B assay; assay type: functional, cell-based; conditions: SKOV3-MDR1-M6/6, 48 h
HL-60(TB) = experiment: Growth inhibition of human HL-60(TB) cells after 48 hrs by sulforhodamine B assay; assay type: functional; conditions: HL-60, 48 h
HeLa [28] = experiment: Antiproliferative activity against human HeLa cells overexpressing wild type beta3 tubulin after 48 hrs by sulforhodamine B assay; assay type: functional, cell-based
ACHN = experiment: Growth inhibition of human ACHN cells after 48 hrs by sulforhodamine B assay; assay type: functional
786-0 = experiment: Growth inhibition of human 786-0 cells after 48 hrs by sulforhodamine B assay; assay type: functional; conditions: 786-0, 48 h
IGROV-1 = experiment: Growth inhibition of human IGROV1 cells after 48 hrs by sulforhodamine B assay; assay type: functional; conditions: IGROV-1, 48 h
SK-OV-3 [29] = experiment: Growth inhibition of human SKOV3 cells after 48 hrs by sulforhodamine B assay; assay type: functional; conditions: SK-OV-3, 48 h
[30] = Growth inhibition of human COLO205 cells after 48 hrs by sulforhodamine B assay; assay type: functional; conditions: COLO 205, 48 h
MDA-MB-435 [31] = experiment: Antiproliferative activity against human MDA-MB-435 cells after 48 hrs by sulforhodamine B assay; assay type: functional, cell-based; conditions: MDA-MB-435, 48 h
[32] = Growth inhibition of human OVCAR5 cells after 48 hrs by sulforhodamine B assay; assay type: functional; conditions: OVCAR-5, 48 h
[33] = Growth inhibition of human […] cells after 48 hrs by sulforhodamine B assay; assay type: functional
NCI/ADR-RES = experiment: Growth inhibition of human NCI/ADR-RES cells after 48 hrs by sulforhodamine B assay; assay type: functional
SF-268 = experiment: Growth inhibition of human SF268 cells after 48 hrs by sulforhodamine B assay; assay type: functional; conditions: SF-268, 48 h

Sequence of Vascular endothelial growth factor receptor 2 (P35968 whole entry): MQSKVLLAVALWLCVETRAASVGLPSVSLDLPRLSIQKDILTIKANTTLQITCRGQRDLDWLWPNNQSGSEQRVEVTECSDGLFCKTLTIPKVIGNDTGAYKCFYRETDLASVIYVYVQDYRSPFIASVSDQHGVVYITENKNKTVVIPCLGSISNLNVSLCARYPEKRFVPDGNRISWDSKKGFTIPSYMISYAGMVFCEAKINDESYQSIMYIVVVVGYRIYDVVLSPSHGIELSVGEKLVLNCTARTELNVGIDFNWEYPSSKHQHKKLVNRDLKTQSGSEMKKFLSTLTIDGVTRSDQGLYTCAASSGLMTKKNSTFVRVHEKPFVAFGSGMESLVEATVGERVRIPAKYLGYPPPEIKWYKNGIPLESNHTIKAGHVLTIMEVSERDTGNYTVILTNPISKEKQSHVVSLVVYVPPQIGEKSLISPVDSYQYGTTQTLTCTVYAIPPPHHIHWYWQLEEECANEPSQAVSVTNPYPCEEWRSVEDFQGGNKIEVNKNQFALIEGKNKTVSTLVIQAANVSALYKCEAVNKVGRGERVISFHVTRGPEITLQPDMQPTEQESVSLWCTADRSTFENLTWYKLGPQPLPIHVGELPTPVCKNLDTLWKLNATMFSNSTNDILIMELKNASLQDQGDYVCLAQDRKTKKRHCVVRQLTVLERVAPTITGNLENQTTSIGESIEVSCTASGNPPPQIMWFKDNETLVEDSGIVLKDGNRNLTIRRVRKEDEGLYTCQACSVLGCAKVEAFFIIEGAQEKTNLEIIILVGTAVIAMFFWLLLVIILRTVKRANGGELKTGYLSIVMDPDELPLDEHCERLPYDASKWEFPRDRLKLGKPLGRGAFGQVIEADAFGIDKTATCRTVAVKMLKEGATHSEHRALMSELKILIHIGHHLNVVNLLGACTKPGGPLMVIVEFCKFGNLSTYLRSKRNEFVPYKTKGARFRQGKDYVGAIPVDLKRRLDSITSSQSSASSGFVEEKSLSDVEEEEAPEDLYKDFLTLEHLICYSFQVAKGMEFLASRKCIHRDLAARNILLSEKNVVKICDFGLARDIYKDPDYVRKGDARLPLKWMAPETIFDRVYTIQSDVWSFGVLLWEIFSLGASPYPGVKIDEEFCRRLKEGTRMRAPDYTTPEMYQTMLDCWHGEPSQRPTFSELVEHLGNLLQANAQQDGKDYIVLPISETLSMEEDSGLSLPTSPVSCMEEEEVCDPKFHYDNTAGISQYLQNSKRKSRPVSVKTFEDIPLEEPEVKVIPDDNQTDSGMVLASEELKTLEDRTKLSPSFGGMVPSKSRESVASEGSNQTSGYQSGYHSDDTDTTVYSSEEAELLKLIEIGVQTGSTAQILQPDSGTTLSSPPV
Sequence of Platelet-derived growth factor receptor beta (P09619 whole entry): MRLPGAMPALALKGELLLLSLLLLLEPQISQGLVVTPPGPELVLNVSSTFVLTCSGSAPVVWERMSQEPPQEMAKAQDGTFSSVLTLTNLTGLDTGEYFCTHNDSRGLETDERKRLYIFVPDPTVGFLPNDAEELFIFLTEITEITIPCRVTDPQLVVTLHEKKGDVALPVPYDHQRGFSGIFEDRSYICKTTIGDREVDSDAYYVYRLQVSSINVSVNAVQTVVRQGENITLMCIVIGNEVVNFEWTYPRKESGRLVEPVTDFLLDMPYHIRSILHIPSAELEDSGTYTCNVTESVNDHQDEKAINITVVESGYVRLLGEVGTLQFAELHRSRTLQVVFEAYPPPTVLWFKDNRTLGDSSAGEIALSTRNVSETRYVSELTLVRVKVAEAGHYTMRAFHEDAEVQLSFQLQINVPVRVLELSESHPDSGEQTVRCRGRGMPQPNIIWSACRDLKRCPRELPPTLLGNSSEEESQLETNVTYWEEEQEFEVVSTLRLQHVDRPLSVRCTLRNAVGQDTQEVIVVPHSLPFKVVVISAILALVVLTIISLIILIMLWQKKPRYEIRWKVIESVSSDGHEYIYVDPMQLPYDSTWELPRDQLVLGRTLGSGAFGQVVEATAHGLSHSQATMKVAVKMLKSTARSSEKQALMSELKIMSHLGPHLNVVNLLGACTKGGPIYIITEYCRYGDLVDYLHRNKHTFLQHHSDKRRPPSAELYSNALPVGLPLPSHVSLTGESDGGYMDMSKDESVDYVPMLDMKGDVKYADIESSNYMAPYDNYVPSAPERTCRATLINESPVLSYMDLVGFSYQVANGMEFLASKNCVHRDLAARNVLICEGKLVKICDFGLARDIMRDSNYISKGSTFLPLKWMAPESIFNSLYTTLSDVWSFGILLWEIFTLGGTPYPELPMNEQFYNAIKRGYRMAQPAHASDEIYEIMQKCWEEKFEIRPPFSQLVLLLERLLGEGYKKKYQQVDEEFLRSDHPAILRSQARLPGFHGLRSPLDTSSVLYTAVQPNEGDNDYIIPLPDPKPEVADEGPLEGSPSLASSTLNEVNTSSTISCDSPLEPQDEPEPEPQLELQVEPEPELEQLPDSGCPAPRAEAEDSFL

Structure (SMILES): COc1ccc2c(ccn2-c2nc(C)nc3oc(C)cc23)c1
- IC50 [1]: > 300000 nM
- IC50 (A-431): > 300 nM
- EC50 [2]: > 10000 nM

Structure (SMILES): Cc1nc(N(C)c2ccc3c(c2)OCO3)c2cc(C)oc2n1
- IC50 [1]: 38200 nM
- IC50 (A-431): 48.9 nM
- EC50 [2]: > 10000 nM

Structure (SMILES): COc1cc(N(C)c2nc(C)nc3oc(C)cc23)cc(OC)c1OC
- IC50 [1]: > 300000 nM
- IC50 (A-431): > 300 nM
- EC50 [2]: > 10000 nM

Structure (SMILES): COc1ccc(N(C)c2nc(C)nc3oc(C)cc23)c(OC)c1
- IC50 (A-431): 17.1 nM
- IC50 [3]: 40.4 nM
- IC50 [4]: 32.3 nM

Structure (SMILES): Cc1nc(N(C)c2ccc3c(c2)CCO3)c2cc(C)oc2n1
- IC50 [1]: 14000 nM
- GI50 (SW-620): 41.6 nM
- Ratio IC50 (HeLa [5]): 0.9
- GI50 [6]: 30.5 nM
- GI50 (SNB-19): 56.5 nM
- GI50 (HT-29): 32.4 nM
- GI50 (NCI-H522): 12.9 nM
- GI50 [7]: 83.4 nM
- GI50 (SR): 36.6 nM
- GI50 (K562): 31.7 nM
- GI50 (SN12C): 97.2 nM
- GI50 [8]: 52.2 nM
- IC50 (HeLa [9]): 105 nM
- IC50 (A-431): 38.3 nM
- GI50 [10]: 38.9 nM
- GI50 [11]: 21.2 nM
- EC50 [2]: 606 nM
- GI50 [12]: 70 nM
- GI50 (NCI-H226): 162 nM
- Ratio [13]: 6
- GI50 [14]: 31.6 nM
- GI50 [15]: 63 nM
- GI50 [16]: 31 nM
- GI50 (SK-MEL-2): 26.4 nM
- GI50 (DU-145): 44.1 nM
- GI50 (MDA-MB-435 [17]): 14 nM
- GI50 (HOP-62): 39.6 nM
- Ratio IC50 (SK-OV-3 [18]): 1.3
- IC50 [19]: 120 nM
- GI50 [20]: 45.6 nM
- GI50 (NCI-H23): 43.9 nM
- GI50 [21]: 24.5 nM
- GI50 (SNB-75): 30.4 nM
- GI50 (CAKI-1): 40.1 nM
- GI50 [22]: 45.8 nM
- GI50 (TK-10): 50.2 nM
- GI50 [23]: 61.3 nM
- GI50 [24]: 77.2 nM
- GI50 (CCRF-CEM): 58.1 nM
- GI50 (MDA-MB-468): 22.1 nM
- GI50 (U-251): 39.7 nM
- GI50 (MDA-MB-231): 148 nM
- GI50 (NCI-H460): 42 nM
- GI50 [25]: 45.1 nM
- GI50 (KM12): 40.1 nM
- GI50 (M14): 34.8 nM
- GI50 [26]: 76.7 nM
- GI50 (SK-MEL-5): 31.4 nM
- GI50 (MCF7): 40.2 nM
- IC50 [27]: 155 nM
- GI50 (HL-60(TB)): 27.6 nM
- IC50 (HeLa [28]): 94 nM
- GI50 (ACHN): 64.2 nM
- GI50 (786-0): 80.4 nM
- GI50 (IGROV-1): 62.9 nM
- GI50 (SK-OV-3 [29]): 37.6 nM
- GI50 [30]: 40.3 nM
- IC50 (MDA-MB-435 [31]): 96.2 nM
- GI50 [32]: 262 nM
- GI50 [33]: 54.2 nM
- GI50 (NCI/ADR-RES): 26.5 nM
- GI50 (SF-268): 13.9 nM

Structure (SMILES): CC(=O)O[C@H]1C(=O)[C@@]2(C)[C@H]([C@H](OC(=O)c3ccccc3)[C@]3(O)C[C@H](OC(=O)[C@H](O)[C@@H](NC(=O)c4ccccc4)c4ccccc4)C(C)=C1C3(C)C)[C@]1(OC(C)=O)CO[C@@H]1C[C@@H]2O [PACLITAXEL]
- IC50 [19]: 6.3 nM
- IC50 (HeLa [28]): 32.9 nM
- IC50 (MDA-MB-435 [31]): 3.3 nM
